Measurements reported in patent US20110100371A1, “ANTI-VIRAL PROPERTIES OF ZOSTERIC ACID AND RELATED MOLECULES” (FLORIDA GULF COAST UNIVERSITY, priority 2007, published 2011).
“Also recorded” adds a separate entry of the source. Where two headings read alike, the source gives them in different places.

Legend:
DENV-2 strain NG-2 = assay: Focus forming unit (FFU) reduction assay, DENV-2; format: cell-based, dengue virus
Procedure: (§1) DENV-1 strain HI-1, DENV-2 strain NG-2, DENV-3 strain H-78, and DENV-4 strain H-42 were obtained from R. Tesh at the World Health Organization Arbovirus Reference Laboratory at the University of Texas at Galveston. Viruses were propagated in the […] kidney epithelial cell line, LLCMK-2, a gift of K. Olsen at Colorado State University. LLCMK-2 cells were grown in Dulbecco's modified eagle medium (DMEM) with 10% (v/v) fetal bovine serum (FBS), 2 mM Glutamax, 100 U/ml penicillin G, 100 μg/ml streptomycin and 0.25 μg/ml amphotericin B, at 37° C. with 5% (v/v) CO2.
LLCMK-2 target cells were seeded at a density of 1×10^5 cells in each well of a 6-well plate 24 h prior to infection. Approximately 200 FFU of virus were incubated with or without chemistries in serum-free DMEM for 1 h at rt. Virus/chemistry or virus/control mixtures were allowed to infect confluent target cell monolayers for 1 h at 37° C., with rocking every 15 m, after which time the medium was aspirated and overlaid with fresh DMEM/10% (v/v) FBS containing 0.85% (w/v) Sea-Plaque Agarose (Cambrex Bio Science, Rockland, Me.). Cells with agar overlays were incubated at 4° C. for 20 m to set the agar. Infected cells were then incubated at 37° C. with 5% CO2 for 3 days (DENV-1, 3 and 4) or 5 days (DENV-2). Infected cultures were fixed with 10% formalin overnight at 4° C., permeabilized with 70% (v/v) ethanol for 20 m, and rinsed with PBS prior to immunostaining. Virus foci were detected using supernatant from mouse anti-DENV hybridoma E60 (obtained from M. Diamond at Washington University) followed by horseradish peroxidase-conjugated goat anti-mouse immunoglobulin (Pierce, Rockford, Ill.) and developed using AEC chromogen substrate (Dako, Carpinteria, Calif.). Results were expressed as the average of at least two independent trials with three replicates in each trial.

DENV-1 strain HI-1 = assay: Focus forming unit (FFU) reduction assay, DENV-1; format: cell-based; conditions: Dengue virus, DENV1, LLC-MK2; DENV-1 (D-1), LLCMK-2 target cells; read-out: IC50 μM ± sem
Procedure: as §1
(§2) LLCMK-2 target cells were seeded at a density of 1×10^5 cells in each well of a 6-well plate 24 h prior to infection. Approximately 200 FFU of virus were incubated with or without chemistries in serum-free DMEM for 1 h at rt. […] Virus foci were detected using supernatant from mouse anti-DENV hybridoma E60 (obtained from M. Diamond at Washington University) followed by horseradish peroxidase-conjugated goat anti-mouse immunoglobulin (Pierce, Rockford, Ill.) and developed using AEC chromogen substrate (Dako, Carpinteria, Calif.). Results were expressed as the average of at least two independent trials with three replicates in each trial.

DENV-3 strain H-78 = assay: Focus forming unit (FFU) reduction assay, DENV-3; format: cell-based; conditions: Dengue virus, DENV3, LLC-MK2; DENV-3 (D-3), LLCMK-2 target cells; read-out: IC50 μM ± sem
Procedure: as §1, §2

DENV-4 strain H-42 = assay: Focus forming unit (FFU) reduction assay, DENV-4; format: cell-based; conditions: Dengue virus, DENV4, LLC-MK2; DENV-4 (D-4), LLCMK-2 target cells; read-out: IC50 μM ± sem
Procedure: as §1, §2

DENV-2 [1] = assay: Post-entry focus-forming assay; format: cell-based, dengue virus; conditions: DENV-2, chemistry added post-entry 1 hr at 37° C.
Procedure: To determine if the observed inhibitory effect was due to interference with post-entry steps in the viral life cycle, approximately 200 FFU of DENV-2 without CF 238 was allowed to bind and enter target cells for 1 h at 37° C. as described for the focus forming assay. Unbound virus was then removed by rinsing with PBS and CF 238 was added to the cells post-entry for 1 hr at 37° C. Cultures were washed again in PBS and agarose overlays, incubation, and immunological detection was conducted as described for the focus forming assay.

DENV-2 [2] = assay: Pre-binding focus-forming assay; format: cell-based, dengue virus; conditions: DENV-2, chemistry incubated with target cells 1 h at 4° C., rinsed before infection
Procedure: To determine if the observed inhibitory effect was due to interference caused by modifications to the target cell surface, CF 238 was incubated with the target cells for 1 h at 4° C., the cells were rinsed with PBS, and approximately 200 FFU of DENV-2 was allowed to infect the cells at 4° C. Agarose overlays, incubation, and immunological detection were conducted as described for the focus forming assay.

DENV-2 [3] = assay: Post-binding focus-forming assay; format: cell-based, dengue virus; conditions: DENV-2 bound at 4° C., then chemistry added 1 h at 4° C.
Procedure: To determine if the observed inhibitory effect was due to interference with interactions that occur pre-binding versus post-binding of virions to the target cells, approximately 200 FFU of DENV-2 was allowed to bind to target LLCMK-2 cells for 1 h at 4° C. to allow binding, but prevent internalization. Unbound virus was washed off with PBS at 4° C., then CF 238 was added and incubated at 4° C. for 1 h. Cultures were washed again in 4° C. PBS and warmed to 37° C. Agarose overlays, incubation, and immunological detection were conducted as described for the focus forming assay.

DENV-2 [4] = assay: qRT-PCR virus binding assay; format: cell-based, dengue virus; conditions: DENV-2 pre-incubated 45 m at 4° C., infection of LLCMK-2 45 m at 4° C.
Procedure: Infection of LLCMK-2 target cells in six well plates was performed in duplicate using 10^5 FFU of DENV-2 that had been pre-incubated for 45 m at 4° C. with CF 238 or pooled heterotypic anti-DENY human serum. After a 45 m infection at 4° C., infected monolayers were washed with PBS and harvested with a cell scraper, added to a 1.5 ml microfuge tube containing 350 μl of AR-200 silicone oil (Sigma-Aldrich, St. Louis, Mo.) mixed with 150 μl of silicone fluid (Thomas, Swedesboro, N.J.), and spun at 14,000 rpm in a microfuge for 1 m to separate the unbound virus from the cell-bound virus in the pellets. The tubes were then submerged in liquid nitrogen for 30 s to freeze the contents. The cell pellets with bound virus were recovered by clipping off the bottoms of the tubes with small wire clippers into 15 ml conical tubes. Viral RNA was extracted from the cell pellets using the Qiagen Viral RNA Extraction kit (Qiagen, Chatsworth, Calif.).
Quantitative real time reverse transcription PCR (qRT-PCR) was performed on the extracted RNA using the Quantitect Sybr Green RT-PCR kit (Qiagen inc., Chatsworth, Calif.), following the manufacturer's specifications and amplification protocols, using dengue-specific primers: (Den2F: […], Den2R: […]). […]

DENV-1,2,3 and 4 = assay: Focus forming unit (FFU) reduction assay, several dengue strains stated together; format: cell-based; conditions: Dengue virus
Procedure: as §1, §2

[5] = Dengue virus, DENV2, LLC-MK2, read-out: IC50 μM ± sem
[6] = Dengue virus, DENV2, read-out: maximum inhibition
[7] = Dengue virus, DENV2, DENV-2, rounded statement in text, read-out: IC50 (approximate)

O=C(c1ccc(O)cc1)N1CCCN(C(=O)c2ccc3cc(O)ccc3c2)CC1 [CF 296]
dose-dependent inhibition against DENV-2 (DENV-2 strain NG-2; DENV-2, result in words): did not show evidence of clear dose-dependent inhibition

CN(CCCNC(=O)c1ccc(O)cc1)CCCNC(=O)c1ccc2cc(O)ccc2c1 [CF 290]
IC50 (DENV-2 strain NG-2; [5]): 294 ± 42 µM
inhibition at 367 µM (DENV-2 strain NG-2; [6]): 60%

CCN(CCCN(CC)C(=O)c1cccc(O)c1)C(=O)c1cccc(O)c1 [CF 490]
IC50 (DENV-2 strain NG-2; [5]): 2380 µM
inhibition at 3000 µM (DENV-2 strain NG-2; [6]): 84%
IC50 (DENV-2 strain NG-2; [7]): ~2000 µM

O=C(O)/C=C/c1ccc(OS(=O)(=O)O)cc1 [ZA, p-sulfoxy-cinnamic acid]
inhibition at 5000 µM (DENV-2 strain NG-2; Dengue virus, DENV2): 99%
IC50 (DENV-2 strain NG-2; [5]): 2380 µM
IC50 (DENV-2 strain NG-2; [7]): ~2000 µM

CN(CCCNC(=O)c1ccc(O)cc1)CCCNC(=O)c1ccc(O)cc1 [CF 285]
IC50 (DENV-2 strain NG-2; [5]): 2520 µM
inhibition at 3000 µM (DENV-2 strain NG-2; [6]): 63%
IC50 (DENV-2 strain NG-2; [7]): ~2000 µM

CCN(CCOC(=O)/C=C/c1ccc(O)cc1)Cc1cc(Cl)ccc1O [CF 238]
inhibition at 84 µM (DENV-2 strain NG-2; Dengue virus, DENV2, AT84): 86%
IC50 (DENV-2 strain NG-2; [5]): 46 ± 4 µM
activity relative to zosteric acid (DENV-2 strain NG-2; anti-DENV inhibitory activity compared with the natural product): ~100 times
IC50 (DENV-1 strain HI-1): 24 ± 6 µM
IC50 (DENV-3 strain H-78): 14 ± 2 µM
IC50 (DENV-4 strain H-42): 47 ± 5 µM
inhibition when added after viral entry (DENV-2 [1]): no evidence of inhibition
inhibition when target cells treated prior to infection (DENV-2 [2]): no evidence of inhibition; also recorded: does not inhibit virus infection when pre-incubated with target cells
inhibition of virus already bound to target cells (DENV-2 [3]): No inhibition of infection was observed
virus binding/attachment to target cells (qRT-PCR signal) (DENV-2 [4]): did not inhibit virus binding; also recorded: enhances virus:cell binding
inhibition at 84 µM (DENV-1,2,3 and 4; DENV1, AT84, all dengue strains, at 84 μM): 86 to 100%
IC50 (DENV-1,2,3 and 4; DENV1, range over DENV-1, 3 and 4, read-out: IC50 against the other three DENV types): 14 to 47 µM
